Earlier results on one molecule are cited in patent publication US11773111B1, “Selective 5-LO inhibitors for the treatment of bronchial asthma” (KING FAISAL UNIVERSITY, priority 2022, dated 2023).

Molecules are shown by their SMILES.

Assay in data set [1]: not given
The source holds these as a separate data set.

For data set [2] the following is noted: clinical use.

Regarding `CC(c1cc2ccccc2s1)N(O)C(N)=O` (stereo not drawn) [Zileuton], the serum half-life was 3 h. Besides, in data set [1], the plasma protein binding was 93%. Also, in data set [2], the undesirable side effects entry is “hepatoxicity”.
